Results: PMC9518609, “Design and synthesis of new trimethoxylphenyl-linked combretastatin analogues loaded on diamond nanoparticles as a panel for ameliorated solubility and antiproliferative activity” (Journal of Enzyme Inhibition and Medicinal Chemistry, 2022)

Key:
Format in all cases: cell-based
β-tubulin = β-tubulin polymerisation inhibition assay (Human Beta-tubulin ELISA kit) on MDA-MB-231 cells; conditions: MDA-MB-231 cell line, each compound at its IC50 concentration
Experimental: Trimethoxy phenyl fragment-containing natural stilbenoid-derived molecules, such as Colchicine and CA-4 bind to β-tubulin subunit at the colchicine binding site resulting in inhibition of microtubule assembly and suppression of its formation. […] From the obtained results it can be concluded that the antiproliferative activity of the synthesised triazinone-linked CA-4 derivatives may be derived from the inhibition of microtubule assembly.
Triazinone derivatives 6 and 12 were assessed for their tubulin inhibitory activity according to manufacturer’s instructions using # abcam Human Beta-tubulin simple step ELISA Kit ab245722.
Part I: Biological Studies
4.3. Biological evaluation
4.3.1. Cytotoxic activity evaluation
The cytotoxic actvity of the synthesized derivatives 2a-13e was measured in MDA-MB-231 breast cancer cell line and derivatives 6 and 12 in MCF-10A […].
Cell viability assay was assessed using MTT assay method. Cells at density of 1 x 104 were seeded in a 96-well plate at 37 °C for 24 h under 5% CO2. After incubation, the cells were treated with different concentrations of the test schiff bases 2a-13e and incubated for 24 h, then 20 µl of MTT solution at 5 mg/mL was applied and incubated for 4 h at 37 °C.
Dimethyl sulphoxide (DMSO) in volume of 100 µl was added to each well to dissolve the purple formazan that had formed. The color intensity of the formazan product, which represents the growth condition of the cells, is quantified by using an ELISA plate reader (EXL 800, USA) at 570 nm absorbance. The experimental conditions were carried out with at least three replicates, and the experiments were repeated at least three times.
4.3.2. Tubulin inhibitions Assay
Compounds 6, 12 and CA-4 were evaluated for their tubulin inhibitory activity according to manufacturer’s instructions using # abcam Human Beta-tubulin simplestep ELISA Kit ab245722. MDA-MB-231 cells were trypsinized, counted and seeded at the 2 × 105 into 96-well micro titer plates. […]
(O.D.) was measured at 450±10 nm using microplate reader (Spectromax Plus 96 well plate […]

p53 = experiment: ELISA measurement of p53 level in MDA-MB-231 cells; conditions: MDA-MB-231, at IC50, 24 h
Excerpt: (§1) p53, Bax, and Bcl-2 are key regulators of the apoptosis process to keep the balance between viable and dead normal cells. Deregulation of these proteins is a common feature responsible for uncontrolled cancer cell growth. In this test, the protein expression of apoptotic regulators was examined using ELISA analysis. […]
(§2) p53, Bax, and Bcl2 enzyme activities in MDA-MB-231 cells were investigated in the presence of compounds 6 and 12 at their IC50 concentration (µM). The levels of the tumour suppressor gene p53, apoptotic markers Bax as well as the anti-apoptotic marker Bcl-2 were assessed using the p53 ELISA kit, Human Bax ELISA kit, and Bcl-2 Elisa kit. The procedure of the used kits was done according to the manufacturer's instructions and was conducted as reported earlier. […]
(§3) 4.3.4.2. Effect on p53, Bax and Bcl-2 p53, Bax and Bcl2 enzyme activities in MDA-MB-231 cells were detected in the presence of compounds 6 and 12 at their IC50 concentration (µM). The levels of the tumor suppressor gene p53, apoptotic markers Bax as well as the anti-apoptotic marker Bcl-2 were assessed using p53 ELISA kit, Human Bax ELISA kit and Bcl-2 Elisa kit. The procedure of the used kits was done according to the manufacturer's instructions. […] The samples were measured at 450 nm in ROBONEK P2000 ELISA reader. […]

MDA-MB-231 cells = experiment: Annexin V-FITC/PI apoptosis staining assay; conditions: MDA-MB-231, at IC50, 24 h; for percentage of late apoptotic cells (upper right quadrant): untreated control 0.13%
Experimental: The effect of compounds 6 and 12 on apoptosis percentage rate was carried out using annexin V-FITC/Propidium iodide (PI) biparametric cytofluorimetric double staining analysis in MDA-MB-231 cells.
Apoptosis in MDA-MB-231 cells was investigated using a fluorescent Annexin V-FITC/PI detection kit (BioVision Annexin V-FITC Apoptosis Detection Kit, Catalog #: K101) by flow cytometry assay. All experimental steps were conducted as reported earlier. […]
4.3.4.1. Apoptosis assay for compounds 6 and 12
Apoptosis in MDA-MB-231 cells was investigated using fluorescent Annexin V-FITC/ PI detection kit (BioVision Annexin V-FITC Apoptosis Detection Kit, Catalog #: K101) by flow cytometry assay. MDA-MB-231 cells at a density of 2 × 10^5 per well were treated […]
stained with Annexin V-FITC/ PI dye for 15 min in the dark at 37 °C. […]
All experiments were done in triplicates. […]

Bcl-2 = experiment: ELISA measurement of Bcl-2 level in MDA-MB-231 cells; conditions: MDA-MB-231, at IC50, 24 h
Excerpt: as §1, §2, §3

| Compound | % Inhibition of β-tubulin polymerisation (β-tubulin) [%] | p53 level increase, fold change compared with no treatment control (p53) [fold] | increase of percentage of early apoptotic cells relative to no treatment control (MDA-MB-231 cells) [fold] | increase of percentage of total apoptotic cells compared with no treatment control (MDA-MB-231 cells) [fold] | percentage of late apoptotic cells (upper right quadrant) (MDA-MB-231 cells) [%] | Bcl-2 level decrease compared with no treatment control (Bcl-2) [fold] |
| --- | --- | --- | --- | --- | --- | --- |
| ethyl 2-(2-(6-oxo-5-(3,4,5-trimethoxybenzylidene)-3–(3,4,5-trimethoxyphenyl)-5,6-dihydro-1,2,4-triazin-2(1H)-yl)thiazol-4-yl)acetate [Compound 12] | 68.28 ± 0.16 | 5.20 | 4.36 | 14.98 | 17.68 | 2.96 |
| COc1cc(C=C2N=C(c3cc(OC)c(OC)c(OC)c3)N(c3ccccc3)NC2=O)cc(OC)c1OC [Compound 6, 2-phenyl-5-(3,4,5-trimethoxybenzylidene)-3-(3,4,5-trimethoxyphenyl)-1,2-dihydro-1,2,4-triazin-6(5H)-one] | 77.61 ± 0.10 | 11.96 | 6.80 | 21.86 | 23.28 | 6.49 |
